pIC50: −log10 of the molar value. Active and inactive are the calls of the source. No cut-off for these calls is given here.

The target of one series is T1, Anoctamin-1 (Homo sapiens, UniProt Q5XXA6).
T1 sequence (Q5XXA6 whole entry): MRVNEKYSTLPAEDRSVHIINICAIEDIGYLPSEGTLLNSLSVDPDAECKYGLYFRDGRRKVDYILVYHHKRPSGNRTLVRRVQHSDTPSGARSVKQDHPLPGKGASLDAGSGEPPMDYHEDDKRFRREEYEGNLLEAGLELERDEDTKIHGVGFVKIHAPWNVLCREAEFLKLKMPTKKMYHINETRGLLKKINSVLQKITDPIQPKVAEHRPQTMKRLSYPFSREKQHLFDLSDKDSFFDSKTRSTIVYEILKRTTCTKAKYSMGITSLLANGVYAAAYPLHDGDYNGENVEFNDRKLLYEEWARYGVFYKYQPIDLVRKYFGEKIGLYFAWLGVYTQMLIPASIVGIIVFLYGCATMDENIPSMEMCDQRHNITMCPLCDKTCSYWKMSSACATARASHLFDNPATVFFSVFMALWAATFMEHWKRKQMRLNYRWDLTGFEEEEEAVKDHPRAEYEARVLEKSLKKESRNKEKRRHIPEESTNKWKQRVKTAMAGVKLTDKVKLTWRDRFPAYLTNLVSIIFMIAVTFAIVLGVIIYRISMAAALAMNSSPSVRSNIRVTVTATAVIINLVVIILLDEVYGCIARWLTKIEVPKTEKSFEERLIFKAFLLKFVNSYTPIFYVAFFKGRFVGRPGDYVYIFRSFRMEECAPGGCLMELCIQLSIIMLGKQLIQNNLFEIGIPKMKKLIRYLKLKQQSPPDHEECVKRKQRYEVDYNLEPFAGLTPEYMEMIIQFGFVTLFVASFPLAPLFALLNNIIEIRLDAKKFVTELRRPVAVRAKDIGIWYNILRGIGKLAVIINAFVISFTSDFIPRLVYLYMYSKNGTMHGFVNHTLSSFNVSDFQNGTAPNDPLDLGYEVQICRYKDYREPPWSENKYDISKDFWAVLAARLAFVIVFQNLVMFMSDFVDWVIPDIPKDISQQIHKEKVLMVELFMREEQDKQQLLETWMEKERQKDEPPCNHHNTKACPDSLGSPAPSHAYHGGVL
The series is described as follows: Inhibition of YFP tagged ANO1 (unknown origin) expressed in FRT cells incubated for 24 hrs by fluorescence plate reader assay. Format: cell-based.

Series [1] has as its target Voltage-dependent N-type calcium channel subunit alpha-1B (Homo sapiens) (UniProt Q00975). The series is described as follows: Inhibition of Cav2.2 (unknown origin) at a holding potential +10 mV at 10 uM by whole cell patch clamp electrophysiology relative to control. A general note: Patch clamp records ionic current or voltage across a cell membrane.
The target of series [2] is Transient receptor potential cation channel subfamily V member 1 (Homo sapiens) (UniProt Q8NER1). The series is described as follows: Inhibition of TRPV1 (unknown origin) at a holding potential +100 mV at 10 uM by whole cell patch clamp electrophysiology relative to control.
Sequence of Transient receptor potential cation channel subfamily V member 1 (Homo sapiens) (Q8NER1 whole entry): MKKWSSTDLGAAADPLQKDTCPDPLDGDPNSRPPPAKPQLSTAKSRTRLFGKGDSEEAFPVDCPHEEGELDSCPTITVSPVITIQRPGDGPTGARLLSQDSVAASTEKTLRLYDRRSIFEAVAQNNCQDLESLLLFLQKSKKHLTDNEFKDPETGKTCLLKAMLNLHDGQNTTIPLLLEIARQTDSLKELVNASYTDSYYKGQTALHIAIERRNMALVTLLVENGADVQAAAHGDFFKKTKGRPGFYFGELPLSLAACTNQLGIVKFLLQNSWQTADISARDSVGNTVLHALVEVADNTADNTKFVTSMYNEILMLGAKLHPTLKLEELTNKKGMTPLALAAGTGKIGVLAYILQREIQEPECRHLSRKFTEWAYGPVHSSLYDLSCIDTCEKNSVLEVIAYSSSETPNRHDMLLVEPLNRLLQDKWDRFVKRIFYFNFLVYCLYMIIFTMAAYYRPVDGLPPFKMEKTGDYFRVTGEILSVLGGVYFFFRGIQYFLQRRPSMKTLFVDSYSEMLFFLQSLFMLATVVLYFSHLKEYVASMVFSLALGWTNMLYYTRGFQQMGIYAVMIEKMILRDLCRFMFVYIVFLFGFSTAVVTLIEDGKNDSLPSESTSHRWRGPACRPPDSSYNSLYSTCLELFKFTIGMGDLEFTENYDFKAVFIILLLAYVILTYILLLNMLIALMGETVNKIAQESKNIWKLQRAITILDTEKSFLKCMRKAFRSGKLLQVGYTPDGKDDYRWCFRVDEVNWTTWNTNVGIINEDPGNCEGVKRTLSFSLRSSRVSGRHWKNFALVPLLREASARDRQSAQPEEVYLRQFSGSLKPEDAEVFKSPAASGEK
The target of series [3] is T2, Anoctamin-2 (Homo sapiens) (UniProt Q9NQ90).
T2 sequence (whole entry): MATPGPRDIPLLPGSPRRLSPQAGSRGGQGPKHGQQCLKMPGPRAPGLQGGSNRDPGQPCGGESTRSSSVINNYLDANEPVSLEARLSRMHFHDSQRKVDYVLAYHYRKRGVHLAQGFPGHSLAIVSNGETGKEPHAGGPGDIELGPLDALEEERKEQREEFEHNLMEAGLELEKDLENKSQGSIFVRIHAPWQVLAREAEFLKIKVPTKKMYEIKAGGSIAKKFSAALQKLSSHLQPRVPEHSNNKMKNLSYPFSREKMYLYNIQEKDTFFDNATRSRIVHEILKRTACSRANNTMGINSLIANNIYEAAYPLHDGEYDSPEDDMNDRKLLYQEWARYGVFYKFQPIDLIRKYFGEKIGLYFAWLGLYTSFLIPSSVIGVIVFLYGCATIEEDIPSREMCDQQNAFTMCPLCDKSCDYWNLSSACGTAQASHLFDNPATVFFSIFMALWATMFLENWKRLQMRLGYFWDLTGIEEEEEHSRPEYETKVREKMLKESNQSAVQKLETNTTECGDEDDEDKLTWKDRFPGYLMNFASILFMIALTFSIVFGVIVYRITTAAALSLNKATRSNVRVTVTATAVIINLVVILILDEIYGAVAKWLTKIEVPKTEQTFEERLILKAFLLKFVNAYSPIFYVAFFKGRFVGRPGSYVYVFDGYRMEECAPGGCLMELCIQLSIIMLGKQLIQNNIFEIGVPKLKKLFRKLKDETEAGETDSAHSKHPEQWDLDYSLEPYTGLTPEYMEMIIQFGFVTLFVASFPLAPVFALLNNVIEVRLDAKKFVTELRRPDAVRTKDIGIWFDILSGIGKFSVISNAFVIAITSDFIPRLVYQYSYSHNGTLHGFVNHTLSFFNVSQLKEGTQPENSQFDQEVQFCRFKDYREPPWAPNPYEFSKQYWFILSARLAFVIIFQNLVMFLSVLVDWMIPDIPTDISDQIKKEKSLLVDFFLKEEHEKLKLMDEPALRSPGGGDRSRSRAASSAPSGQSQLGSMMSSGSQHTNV
Put plainly: Inhibition of human ANO2 expressed in HEK293 cells at 30 uM incubated for 5 mins by whole cell patch clamp electrophysiology relative to control. Format: cell-based.

In series [4] the test system is Mus musculus. Put plainly: Analgesic activity in C57BL/6 mouse model of formalin-induced allodynia assessed as reduction on foot licking pain response at 40 mg/kg,po measured after 10 mins. Format: functional, organism-based.
Series [5] in a line: Cytotoxicity against human HEK293 cells assessed as inhibition of cell growth at 30 uM incubated for 72 hrs by CCK-8 assay. In kind it is toxicity, cell-based. Background: Tetrazolium dyes change colour on reduction, which living cells bring about.
Series [6] has as its target Voltage-gated inwardly rectifying potassium channel KCNH2 (Homo sapiens, UniProt Q12809). Put plainly: Cardiotoxicity against human ERG expressed in HEK293 cells by patch clamp assay. In kind it is toxicity, cell-based.
The target in series [7] is Transient receptor potential cation channel subfamily V member 1 (Homo sapiens) (UniProt Q8NER1). Put plainly: Inhibition of TRPV1 (unknown origin) at a holding potential +100 mV at 30 uM by whole cell patch clamp electrophysiology relative to control.
The target in series [8] is T3, Anoctamin-1 (Homo sapiens) (UniProt Q5XXA6).
T3 sequence (whole entry): T1 sequence (Q5XXA6 whole entry)
Put plainly: Inhibition of YFP tagged ANO1 (unknown origin) expressed in FRT cells at 30 uM incubated for 24 hrs by whole cell patch clamp electrophysiology relative to control. In kind it is cell-based.

Series [9] concerns Mus musculus. Put plainly: Analgesic activity in C57BL/6 mouse model of formalin-induced allodynia assessed as reduction on foot licking pain response at 20 mg/kg,po measured after 10 mins. Format: functional, organism-based.
The target of series [10] is Voltage-gated potassium channel, KQT; KCNQ2(Kv7.2)/KCNQ3(Kv7.3) (Homo sapiens) (UniProt O43526+O43525). Put plainly: Inhibition of KCNQ2/3 (unknown origin) at a holding potential -40 mV at 30 uM by whole cell patch clamp electrophysiology relative to control.

Sequence of Voltage-gated inwardly rectifying potassium channel KCNH2 (Q12809 whole entry): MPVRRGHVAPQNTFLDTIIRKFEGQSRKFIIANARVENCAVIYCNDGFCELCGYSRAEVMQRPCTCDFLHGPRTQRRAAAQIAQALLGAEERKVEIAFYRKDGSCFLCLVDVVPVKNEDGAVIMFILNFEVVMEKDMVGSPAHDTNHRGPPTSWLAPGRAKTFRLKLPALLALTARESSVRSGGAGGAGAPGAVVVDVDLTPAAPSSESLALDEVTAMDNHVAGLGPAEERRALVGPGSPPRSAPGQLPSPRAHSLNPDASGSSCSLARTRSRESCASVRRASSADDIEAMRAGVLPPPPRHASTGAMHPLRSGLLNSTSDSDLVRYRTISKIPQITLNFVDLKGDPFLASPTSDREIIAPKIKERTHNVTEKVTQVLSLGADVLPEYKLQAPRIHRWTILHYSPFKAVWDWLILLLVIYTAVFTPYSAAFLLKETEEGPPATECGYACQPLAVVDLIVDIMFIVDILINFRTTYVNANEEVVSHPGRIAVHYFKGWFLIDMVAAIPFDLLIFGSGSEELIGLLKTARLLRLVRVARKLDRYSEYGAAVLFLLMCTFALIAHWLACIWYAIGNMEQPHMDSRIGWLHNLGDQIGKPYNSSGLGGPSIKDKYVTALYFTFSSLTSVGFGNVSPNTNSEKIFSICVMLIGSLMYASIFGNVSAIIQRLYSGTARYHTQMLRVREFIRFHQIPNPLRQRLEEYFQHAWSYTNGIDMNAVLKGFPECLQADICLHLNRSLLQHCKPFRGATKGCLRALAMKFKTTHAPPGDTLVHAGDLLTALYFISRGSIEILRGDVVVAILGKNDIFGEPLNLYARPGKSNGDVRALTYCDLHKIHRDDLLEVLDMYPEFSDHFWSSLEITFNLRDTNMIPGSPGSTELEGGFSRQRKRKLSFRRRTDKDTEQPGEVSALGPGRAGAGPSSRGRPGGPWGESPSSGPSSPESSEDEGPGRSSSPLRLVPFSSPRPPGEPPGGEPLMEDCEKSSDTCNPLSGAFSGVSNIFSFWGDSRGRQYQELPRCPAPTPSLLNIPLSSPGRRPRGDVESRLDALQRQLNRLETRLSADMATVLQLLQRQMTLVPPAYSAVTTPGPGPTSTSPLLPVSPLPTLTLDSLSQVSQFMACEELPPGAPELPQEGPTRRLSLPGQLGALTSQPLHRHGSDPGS
Sequence of Voltage-dependent N-type calcium channel subunit alpha-1B (Homo sapiens) (Q00975 whole entry, looked up, tested part not stated): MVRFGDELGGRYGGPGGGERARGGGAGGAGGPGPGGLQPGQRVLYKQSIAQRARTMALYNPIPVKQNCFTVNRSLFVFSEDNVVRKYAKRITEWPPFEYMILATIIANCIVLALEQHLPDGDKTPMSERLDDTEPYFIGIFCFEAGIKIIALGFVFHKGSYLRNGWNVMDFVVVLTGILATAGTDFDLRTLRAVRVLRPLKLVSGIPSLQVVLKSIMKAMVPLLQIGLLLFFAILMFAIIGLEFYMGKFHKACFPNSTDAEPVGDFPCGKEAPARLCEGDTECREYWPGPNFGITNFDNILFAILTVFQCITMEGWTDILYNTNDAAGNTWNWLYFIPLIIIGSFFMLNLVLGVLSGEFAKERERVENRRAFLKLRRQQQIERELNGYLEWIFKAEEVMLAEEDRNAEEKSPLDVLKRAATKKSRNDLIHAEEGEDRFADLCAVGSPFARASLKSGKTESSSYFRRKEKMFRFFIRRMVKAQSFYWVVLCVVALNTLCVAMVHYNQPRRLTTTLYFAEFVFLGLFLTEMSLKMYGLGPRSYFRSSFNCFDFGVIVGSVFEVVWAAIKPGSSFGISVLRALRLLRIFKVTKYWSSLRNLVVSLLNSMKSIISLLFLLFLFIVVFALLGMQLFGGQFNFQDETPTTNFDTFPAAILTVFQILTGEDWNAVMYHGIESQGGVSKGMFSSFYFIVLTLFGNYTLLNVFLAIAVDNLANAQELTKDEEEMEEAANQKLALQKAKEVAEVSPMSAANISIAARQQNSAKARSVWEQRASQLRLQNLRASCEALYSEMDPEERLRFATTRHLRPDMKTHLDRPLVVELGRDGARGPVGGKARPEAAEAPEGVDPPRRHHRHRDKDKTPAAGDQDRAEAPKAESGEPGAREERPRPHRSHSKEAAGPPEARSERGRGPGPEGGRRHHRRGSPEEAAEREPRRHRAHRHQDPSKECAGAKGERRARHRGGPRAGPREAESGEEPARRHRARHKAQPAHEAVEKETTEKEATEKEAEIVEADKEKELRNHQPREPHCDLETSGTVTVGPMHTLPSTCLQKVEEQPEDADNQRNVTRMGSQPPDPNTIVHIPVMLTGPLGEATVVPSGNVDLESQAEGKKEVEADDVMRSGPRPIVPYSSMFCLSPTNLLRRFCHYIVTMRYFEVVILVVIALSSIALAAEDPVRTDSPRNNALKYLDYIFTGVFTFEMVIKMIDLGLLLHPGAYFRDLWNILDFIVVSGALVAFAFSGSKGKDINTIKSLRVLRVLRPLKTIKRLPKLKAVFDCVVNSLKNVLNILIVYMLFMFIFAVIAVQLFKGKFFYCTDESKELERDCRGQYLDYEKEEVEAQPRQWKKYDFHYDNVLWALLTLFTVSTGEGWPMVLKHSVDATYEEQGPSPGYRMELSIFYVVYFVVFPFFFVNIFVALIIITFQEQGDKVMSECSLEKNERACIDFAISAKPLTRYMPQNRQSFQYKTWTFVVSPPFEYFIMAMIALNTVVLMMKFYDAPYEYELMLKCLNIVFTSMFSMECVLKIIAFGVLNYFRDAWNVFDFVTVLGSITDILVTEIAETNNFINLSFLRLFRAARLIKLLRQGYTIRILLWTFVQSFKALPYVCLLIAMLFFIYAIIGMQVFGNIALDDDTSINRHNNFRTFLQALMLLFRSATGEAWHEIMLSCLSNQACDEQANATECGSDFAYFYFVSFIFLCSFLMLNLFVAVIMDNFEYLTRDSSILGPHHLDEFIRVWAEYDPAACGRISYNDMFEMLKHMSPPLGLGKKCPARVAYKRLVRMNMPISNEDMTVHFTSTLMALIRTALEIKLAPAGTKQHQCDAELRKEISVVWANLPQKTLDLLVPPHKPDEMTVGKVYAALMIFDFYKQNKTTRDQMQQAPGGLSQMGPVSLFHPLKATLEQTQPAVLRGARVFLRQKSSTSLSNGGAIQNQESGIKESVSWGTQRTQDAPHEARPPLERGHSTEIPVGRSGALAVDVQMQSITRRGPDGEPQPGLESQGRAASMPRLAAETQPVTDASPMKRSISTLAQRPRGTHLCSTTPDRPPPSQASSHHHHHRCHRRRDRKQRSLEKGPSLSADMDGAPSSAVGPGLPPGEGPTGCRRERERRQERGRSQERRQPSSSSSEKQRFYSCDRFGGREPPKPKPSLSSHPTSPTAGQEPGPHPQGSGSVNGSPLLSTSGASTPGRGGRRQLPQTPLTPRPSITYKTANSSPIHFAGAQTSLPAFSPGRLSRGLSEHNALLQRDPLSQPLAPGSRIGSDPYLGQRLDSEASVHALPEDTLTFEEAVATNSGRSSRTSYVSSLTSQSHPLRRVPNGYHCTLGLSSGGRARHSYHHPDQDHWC

As a reminder, the pIC50 is the negative decadic logarithm of the IC50, by convention in mol/L. A low value points to a large IC50. `COc1ccc(Cl)c(C(=O)Nc2scc(-c3ccc(Cl)cc3)c2C(=O)O)c1`: the pIC50 on Anoctamin-1 is 4.45. The same measure, in the same setting: the value for `Cc1ccc(Cl)c(C(=O)Nc2scc(-c3ccc(Cl)cc3)c2C(=O)O)c1` was 5.75. In general, inhibition refers to the percentage by which the read-out fell short of the control. Take CADMIUM DICHLORIDE: the inhibition in [1] stood at 91.4%.

With `COc1cc(CNC(=O)CCCC/C=C/C(C)C)ccc1O`, the inhibition in series [2] was 96.7%.

The compound `O=C(Nc1scc(-c2ccc(Cl)cc2)c1C(=O)O)c1cc(Cl)ccc1F` gave a pIC50 at Anoctamin-1 of 5.06. The same measure, in the same setting: then `O=C(O)c1c(-c2ccc(Cl)cc2)csc1NC(=O)c1cccc2ccccc12`, with 6.10. The compound `CC(C)(C)C1CCc2c(sc(NC(=O)c3ccco3)c2C(=O)O)C1` (configuration not stated) gave an inhibition in series [3] of 71.2%. Besides, in the series with Mus musculus [4], the outcome was Active.

`O=C(Nc1scc(-c2ccc(Cl)cc2)c1C(=O)O)c1ccc(Cl)cc1Cl`: the pIC50 on Anoctamin-1 is 5.91.

`O=C(Nc1scc(-c2ccc(Cl)cc2)c1C(=O)O)c1cc(F)ccc1I` gave a pIC50 against Anoctamin-1 of 5.66. This pIC50 lies 0.25 log units lower than the previous one. Turning to `O=C(Nc1scc(-c2ccc(Cl)cc2)c1C(=O)O)c1ccccc1OC(F)(F)F`, the pIC50 at Anoctamin-1 was 5.25. Consider `O=C(Nc1scc(-c2ccc(Cl)cc2)c1C(=O)O)c1cc(Cl)ccc1Br`, for which the figures for the pIC50 (at Anoctamin-1; in series [6]) were 7.54 and less than 4.52, respectively. Also, the values for the inhibition in series [3], in [7] and in [8] were 92.6%, 26.4% and 32.1%, respectively. Also, the inhibition at 72 h, 30 µM in series [5] was less than 10%. `COc1ccccc1/N=N/C(=O)COc1ccc(Cl)cc1C` showed a pIC50 at Anoctamin-1 of 5.97. The results for the inhibition in [3] and in series [8] were 12.6% and 42.7%, respectively. Regarding `O=C(Nc1scc(-c2ccc(Cl)cc2)c1C(=O)O)c1cc(Cl)ccc1C(F)(F)F`, the pIC50 at Anoctamin-1 was 5.80. At Anoctamin-1, `O=C(Nc1scc(-c2ccc(Cl)cc2)c1C(=O)O)c1cc(I)ccc1F` gave a negative logarithm of the IC50 (pIC50) of 5.35. In the case of `O=C(Nc1scc(-c2ccc(Cl)cc2)c1C(=O)O)c1cc(F)ccc1Br`, the pIC50 against Anoctamin-1 is 6.02.

As to `CC(=O)Oc1ccccc1C(=O)Nc1ncc([N+](=O)[O-])s1` [NITAZOXANIDE], on Anoctamin-1, the pIC50 was 6.37.

In the case of `O=C(Nc1scc(-c2ccc(Cl)cc2)c1C(=O)O)c1cc(F)ccc1Cl`, the pIC50 at Anoctamin-1 is 5.18. This pIC50 is 1.19 log units lower than that of the compound before. Turning to `CC(C)C[C@H](CN)CC(=O)O`, the result in the series on Mus musculus [9] was Active. As for `O=C(Nc1scc(-c2ccc(Cl)cc2)c1C(=O)O)c1cc(Cl)ccc1Cl`, on Anoctamin-1, the pIC50 was 6.57. The same measure, in the same setting: the value for `Cc1ccc(Cl)cc1C(=O)Nc1scc(-c2ccc(Cl)cc2)c1C(=O)O` was less than 4.00.

As to `CC(C)Cc1ccc(C(C)C(=O)O)cc1` (configuration not stated), the result in the series on Mus musculus [4] was Active. The compound `COc1ccc(Cl)cc1C(=O)Nc1scc(-c2ccc(Cl)cc2)c1C(=O)O` had a pIC50 against Anoctamin-1 of less than 4.00.

For the compound `Cc1ccsc1C(=O)Nc1scc(-c2ccc(Cl)cc2)c1C(=O)O`, the pIC50 against Anoctamin-1 was 5.51.

`O=C(Nc1scc(-c2ccc(Cl)cc2)c1C(=O)O)c1cccc2c1OCCO2` gave a pIC50 against Anoctamin-1 of less than 4.00.

`O=C(Nc1scc(-c2ccc(Cl)cc2)c1C(=O)O)c1cccnc1` showed a pIC50 at Anoctamin-1 of 4.15. The same measure, in the same setting: then `O=C(Nc1scc(-c2ccc(Cl)cc2)c1C(=O)O)c1ccncc1`, with 5.20. Regarding `O=C(O)c1c(-c2ccc(Cl)cc2)csc1NC(=O)c1cccc2ncccc12`, the pIC50 at Anoctamin-1 was 5.16. The pIC50 values of the last two compounds are within 0.2 log units of each other. Still for that read-out and setting: the value for `O=C(Nc1scc(-c2ccc(Cl)cc2)c1C(=O)O)c1cc(I)ccc1Cl` was 4.10. As for `O=C(O)c1c(-c2ccc(Cl)cc2)csc1NC(=O)c1cccc2cccnc12`, the pIC50 against Anoctamin-1 is less than 3.52. In series [10], `CCOC(=O)Nc1ccc(NCc2ccc(F)cc2)cc1N` returned an inhibition of 100%. `O=C(Nc1ccc([N+](=O)[O-])cc1Cl)c1cc(Cl)ccc1O` [NICLOSAMIDE] had a pIC50 against Anoctamin-1 of 7.55. Still for that read-out and setting: the value for `O=C(Nc1scc(-c2ccc(Cl)cc2)c1C(=O)O)c1cc(Br)ccc1F` was 4.22; that for `O=C(Nc1scc(-c2ccc(Cl)cc2)c1C(=O)O)c1c(Cl)cccc1Cl` was 4.92; that for `O=C(Nc1scc(-c2ccc(Cl)cc2)c1C(=O)O)c1cc(Br)ccc1Cl` was 4.08. Still for that read-out and setting: the value for `O=C(Nc1scc(-c2ccc(Cl)cc2)c1C(=O)O)c1cccc(Cl)c1Cl` was 5.71. On Anoctamin-1, `O=C(Nc1scc(-c2ccc(Cl)cc2)c1C(=O)O)c1cccc2c1OCO2` had a pIC50 of less than 4.00. The same measure, in the same setting: the value for `O=C(Nc1scc(-c2ccc(Cl)cc2)c1C(=O)O)c1cc(C(F)(F)F)ccc1Cl` was 4.43. `O=C(Nc1scc(-c2ccc(Cl)cc2)c1C(=O)O)c1cc(Cl)ccc1I`: the pIC50 against Anoctamin-1 is 4.92. On Anoctamin-1, `O=C(Nc1scc(-c2ccc(Cl)cc2)c1C(=O)O)c1cnccn1` showed a pIC50 of 5.40.

For the origin of these results see ChEMBL document CHEMBL5120859, “Optimization of 4-arylthiophene-3-carboxylic acid derivatives as inhibitors of ANO1: Lead optimization studies toward their analgesic efficacy for inflammatory pain” (Eur J Med Chem, 2022).
